Results as given in patent publication US6642216B2, “Isoprenoid pathway inhibitors for stimulating bone growth” (ZymoGenetics Corporation, priority 1996, dated 2003).

Tests used:
[1] = test system: BMP-2 promoter; assay: ABA assay: BMP-2 promoter-luciferase reporter in 2T3-BMP-2-LUC osteoblast cells; assay type: cell-based, mouse
Description: These transformed cells are then evaluated for the production of the reporter gene product; compounds that activate the BMP promoter will drive production of the reporter protein, which can be readily assayed.
The cells were cultured using α-MEM, 10% FCS with 1% penicillin/streptomycin and 1% glutamine (“plating medium”), and were split 1:5 once per week. For the assay, the cells were resuspended in a plating medium containing 4% FCS, plated in microtiter plates at a concentration of 5×10^3 cells (in 50 μl)/well, and incubated for 24 hours at 37° C. in 5% CO2. To initiate the assay, 50 μl of the test compound or the control in DMSO was added at 2× concentration to each well, so that the final volume was 100 μl. The final serum concentration was 2% FCS, and the final DMSO concentration was 1%.
The treated cells were incubated for 24 hours at 37° C. and 5% CO2. The medium was then removed, and the cells were rinsed three times with PBS. After removal of excess PBS, 25 μl of 1× cell culture lysing reagent (Promega #E153A) was added to each well and incubated for at least ten minutes. Optionally, the plates/samples could be frozen at this point. To each well was added 50 μl of luciferase substrate (Promega #E152A; 10 ml Promega luciferase assay buffer per 7 mg Promega luciferase assay substrate). Luminescence was measured on an automated 96-well luminometer, and was expressed as either picograms of luciferase activity per well or as picograms of luciferase activity per microgram of protein.
Alternatively, the reactivity of a compound to be tested can be compared directly to a negative control containing no compound.

[2] = test system: neonatal mouse calvaria; assay: Neonatal mouse calvaria assay (in vitro bone formation); assay type: cell-based; conditions: for effect on new bone area: under these conditions (0.1-1000 μM)
Description: Briefly, four days after birth, the front and parietal bones of ICR Swiss white mouse pups are removed by microdissection and split along the sagittal suture.
Three μm sections of the calvaria are prepared. Representative sections are selected for histomorphometric assessment of bone formation or bone resorption. Bone changes are measured on sections cut 200 μm apart. Osteoblasts and osteoclasts are identified by their distinctive morphology.
Selected compounds and appropriate controls were assayed in vitro (ex vivo) for bone formation activity (described above in “Neonatal Mouse Calvaria Assay (in vitro)”). Histomorphometrical assessments of ex vivo calvaria were carried out using an OsteoMetrics bone morphometry measurement program, according to the manufacturer's instructions. Measurements were determined using either a 10- or 20-fold objective with a standard point counting eyepiece graticule.
New bone formation was determined (using a 10× objective) by measuring the new bone area formed in one field in 3 representative sections of each bone (4 bones per group). Each measurement was carried out ½ field distance from the end of the suture. Both total bone and old bone area were measured. Data were expressed as new bone area in mm^2.
Osteoblast numbers were determined by point counting. The number of osteoblast cells lining the bone surface on both sides of the bone were counted in one field using a 20× objective. Data were expressed as osteoblast numbers/mm of bone surface.
The results were calculated as new bone area in mm^2×10^−3, as above.

[3] = Experiment 3, 8.88178E μg/ml (0.002193 μM lovastatin, 0.002087 μM fluvastatin)

With `c1ccc(N=NC2=NNc3ccccc3S2)cc1` [59-0008, 3-phenylazo-1H-4,1,2-benzothiadiazine] the “concentration at which reactivity is maximal” value [1] was 3 to 10 µM.
In the case of `NCCCC(O)(P(=O)(O)O)P(=O)(O)O` [Alendronate, alendronate], the “New Bone Area” value ([2]; other bisphosphonates, 0.1 μM) is reported as 3.5 ± 0.3 mm^2 × 10^−3, the “New Bone Area” value ([2]; other bisphosphonates, 1 μM) is reported as 5.2 ± 0.5 mm^2 × 10^−3 and the “New Bone Area” value ([2]; other bisphosphonates, 10 μM) is reported as 3.3 ± 0.6 mm^2 × 10^−3. For the same compound, the “New Bone Area” value ([2]; other bisphosphonates, 100 μM) was “Toxic” and the “effect on new bone area” value [2] was “negligible effects”.
With `O=P(O)(O)C(Cl)(Cl)P(=O)(O)O` [Clodronate, clodronate] the “New Bone Area” value ([2]; other bisphosphonates, 10 μM) was 4.8 ± 1.3 mm^2 × 10^−3, the “New Bone Area” value ([2]; other bisphosphonates, 100 μM) was 4.6 ± 0.6 mm^2 × 10^−3 and the “New Bone Area” value ([2]; other bisphosphonates, 1000 μM) was 3.5 ± 0.5 mm^2 × 10^−3. The “effect on new bone area” value [2] was “negligible effects”.
For `CC(C)n1c(/C=C/C(O)CC(O)CC(=O)O)c(-c2ccc(F)cc2)c2ccccc21` (stereo not drawn) [Fluvastatin, fluvastatin], the “% 59-0008 Response” value ([1]; Experiment 1, 0.195312 μg/ml) was 36.820%, the “Fold increase over negative control” value ([1]; Experiment 1, 0.195312 μg/ml) was 2.630 fold and the “% 59-0008 Response” value ([1]; Experiment 1, 0.390625 μg/ml) was 28.080%. The “Fold increase over negative control” value ([1]; Experiment 1, 0.390625 μg/ml) was 2.243 fold, the “% 59-0008 Response” value ([1]; Experiment 1, 0.78125 μg/ml) was 75.160% and the “Fold increase over negative control” value ([1]; Experiment 1, 0.78125 μg/ml) was 4.328 fold. For the same compound, the “% 59-0008 Response” value ([1]; Experiment 1, 1.5625 μg/ml) was 117.980%, the “Fold increase over negative control” value ([1]; Experiment 1, 1.5625 μg/ml) was 6.223 fold and the “% 59-0008 Response” value ([1]; Experiment 1, 3.125 μg/ml) was 173.280%. The “Fold increase over negative control” value ([1]; Experiment 1, 3.125 μg/ml) was 8.672 fold, the “% 59-0008 Response” value ([1]; Experiment 1, 6.25 μg/ml) was 165.630% and the “Fold increase over negative control” value ([1]; Experiment 1, 6.25 μg/ml) was 8.333 fold. For the same compound, the “% 59-0008 Response” value ([1]; Experiment 1, 12.5 μg/ml) was 164.450%, the “Fold increase over negative control” value ([1]; Experiment 1, 12.5 μg/ml) was 8.281 fold and the “% 59-0008 Response” value ([1]; Experiment 1, 25 μg/ml) was 137.500%. The “Fold increase over negative control” value ([1]; Experiment 1, 25 μg/ml) was 7.088 fold, the “% 59-0008 Response” value ([1]; Experiment 1, 50 μg/ml) was −22.660% and the “Fold increase over negative control” value ([1]; Experiment 1, 50 μg/ml) was −0.003 fold. For the same compound, the “% 59-0008 Response” value ([1]; Experiment 1, 200 μg/ml) was −22.700%, the “Fold increase over negative control” value ([1]; Experiment 1, 200 μg/ml) was −0.005 fold and the “% 59-0008 Response” value ([1]; Experiment 3, 0.002842 μg/ml) was −3.26%. For the same compound, the “Fold increase over negative control” value ([1]; Experiment 3, 0.002842 μg/ml) was 0.83 fold, the “% 59-0008 Response” value ([1]; Experiment 3, 0.009094 μg/ml) was −3.84% and the “Fold increase over negative control” value ([1]; Experiment 3, 0.009094 μg/ml) was 0.8 fold. For the same compound, the “% 59-0008 Response” value ([1]; Experiment 3, 0.029103 μg/ml) was −5.18%, the “Fold increase over negative control” value ([1]; Experiment 3, 0.029103 μg/ml) was 0.73 fold and the “% 59-0008 Response” value ([1]; Experiment 3, 0.093132 μg/ml) was −2.11%. For the same compound, the “Fold increase over negative control” value ([1]; Experiment 3, 0.093132 μg/ml) was 0.89 fold, the “% 59-0008 Response” value ([1]; Experiment 3, 0.298023 μg/ml) was −3.26% and the “Fold increase over negative control” value ([1]; Experiment 3, 0.298023 μg/ml) was 0.83 fold. For the same compound, the “% 59-0008 Response” value ([1]; Experiment 3, 0.953674 μg/ml) was 2.3%, the “Fold increase over negative control” value ([1]; Experiment 3, 0.953674 μg/ml) was 1.12 fold and the “% 59-0008 Response” value ([1]; Experiment 3, 3.051757 μg/ml) was 22.66%. The “Fold increase over negative control” value ([1]; Experiment 3, 3.051757 μg/ml) was 2.18 fold, the “% 59-0008 Response” value ([1]; Experiment 3, 9.765625 μg/ml) was 103.7% and the “Fold increase over negative control” value ([1]; Experiment 3, 9.765625 μg/ml) was 6.4 fold. For the same compound, the “% 59-0008 Response” value ([1]; Experiment 3, 31.25 μg/ml) was 122.53%, the “Fold increase over negative control” value ([1]; Experiment 3, 31.25 μg/ml) was 7.38 fold and the “% 59-0008 Response” value [1, 3] was −0.19%. The “Fold increase over negative control” value [1, 3] was 0.99 fold.
With `CCCCCN(C)CCC(O)(P(=O)(O)O)P(=O)(O)O` [Ibandronate, ibandronate] the “effect on bone formation (dose response curves)” value ([2]; 10 μM) was “significant increase of bone formation”, the “New Bone Area” value ([2]; Experiment 1, 10 μM) was 8.3 ± 0.7 mm^2 × 10^−3 and the “New Bone Area” value ([2]; Experiment 1, 100 μM) was “Toxic”. The “New Bone Area” value ([2]; Experiment 1, 1000 μM) was “Toxic”, the “New Bone Area” value ([2]; Experiment 2, 0.01 μM) was 3.5 ± 0.43 mm^2 × 10^−3 and the “New Bone Area” value ([2]; Experiment 2, 0.1 μM) was 3.2 ± 0.56 mm^2 × 10^−3. For the same compound, the “New Bone Area” value ([2]; Experiment 2, 1 μM) was 4.9 ± 1.2 mm^2 × 10^−3, the “New Bone Area” value ([2]; Experiment 2, 10 μM) was 7.2 ± 0.7 mm^2 × 10^−3 and the “New Bone Area” value ([2]; Experiment 2, 100 μM) was “Toxic”. For the same compound, the “New Bone Area” value ([2]; Experiment 2, 1000 μM) was “Toxic”, the “New Bone Area” value ([2]; Experiment 3, 0.1 μM) was 6.2 ± 0.6 mm^2 × 10^−3 and the “New Bone Area” value ([2]; Experiment 3, 1 μM) was 7.5 ± 0.7 mm^2 × 10^−3. For the same compound, the “New Bone Area” value ([2]; Experiment 3, 10 μM) was 9.5 ± 2.4 mm^2 × 10^−3, the “New Bone Area” value ([2]; Experiment 3, 100 μM) was “Toxic” and the “New Bone Area” value ([2]; combination study, IBN (1 μM), ibandronate 1 μM alone) was 3.95 ± 0.28 mm^2 × 10^−3. For the same compound, the “New Bone Area” value ([2]; combination study, IBN (10 μM), ibandronate 10 μM alone) was 6.03 ± 1.56 mm^2 × 10^−3.
